Laboratory results: publication PMC10999543, “Identification of kinase modulators as host-directed therapeutics against intracellular methicillin-resistant Staphylococcus aureus” (Frontiers in Cellular and Infection Microbiology, 2024)
Like-named read-outs stand apart in the source and are kept apart here.

Experiments:
[1] = system: HeLa cells; assay: Compound screen by flow cytometry: HeLa cell count as surrogate readout of cell viability (z-scoreHeLa); format: cell-based, human; conditions: for cell count rep 1 / z-scoreHeLa rep 1: replicate 1; for cell count rep 2 / z-scoreHeLa rep 2: replicate 2; for cell count rep 3 / z-scoreHeLa rep 3: replicate 3; for z-scoreHeLa mean: mean of 3 replicates
Outline: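 HeLa cells were infected with GFP-MRSA (mean MOI 6.8 ± 4.6) for 1 h, and extracellular bacteria were killed with 30 µg/ml gentamicin. Cells were then incubated overnight with kinase inhibitors in 5 µg/ml gentamicin, in triplicate against DMSO controls. Flow-cytometric cell count served as a viability surrogate, expressed as a plate z-score.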

[2] = system: intracellular MRSA; format: cell-based, Staphylococcus aureus; conditions: for %GFP+ rep 1 / z-scoreMRSA+ rep 1: replicate 1; for %GFP+ rep 2 / z-scoreMRSA+ rep 2: replicate 2; for %GFP+ rep 3 / z-scoreMRSA+ rep 3: replicate 3; for z-scoreMRSA+ mean: mean of 3 replicates
Outline: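 HeLa cells infected with GFP-MRSA (MOI ~6.8), gentamicin-cleared, then incubated overnight at 37°C with inhibitors plus 5 µg/ml gentamicin; DMSO as negative control, triplicates. Flow cytometry gave % GFP-positive cells and cell count (viability surrogate); hits by plate z-score (MRSA ≤ -2, HeLa count ≥ -3).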

[3] = PKIS compound screen raw data, HeLa cell count
[4] = PKIS compound screen, HeLa cell count
[5] = PKIS compound screen, Yes/No call on z-scoreHeLa
[6] = PKIS compound screen raw data, MRSA-infected HeLa cells
[7] = PKIS compound screen, MRSA-infected HeLa cells
[8] = PKIS compound screen, Yes/No call (effect without cell death)
[9] = PKIS compound screen, Yes/No call on z-scoreMRSA+
[10] = PKIS compound screen, Yes/No call
[11] = PKIS compounds raw data, HeLa cell count
[12] = PKIS compounds raw data, MRSA-infected HeLa cells
[13] = compound screen, HeLa cell count
[14] = compound screen, MRSA-infected HeLa cells

SMILES	cell count rep 1 [1, 3]	cell count rep 2 [1, 3]	cell count rep 3 [1, 3]	z-scoreHeLa mean [1, 4]	z-scoreHeLa rep 1 [1, 4]	z-scoreHeLa rep 2 [1, 4]	z-scoreHeLa rep 3 [1, 4]	cell death [1, 5]	%GFP+ rep 1 [2, 6]	%GFP+ rep 2 [2, 6]	%GFP+ rep 3 [2, 6]	z-scoreMRSA+ mean [2, 7]	z-scoreMRSA+ rep 1 [2, 7]	z-scoreMRSA+ rep 2 [2, 7]	z-scoreMRSA+ rep 3 [2, 7]	hit [2, 8]	effect [2, 9]	cell death [1, 10]	z-scoreHeLa mean ([1]; PKIS compound screen)	z-scoreHeLa rep 1 ([1]; PKIS compound screen)	also measured
COc1ccc(Nc2nccc(N3CCC(NC(=O)c4cc5ccccc5s4)C3)n2)cc1 (stereo not shown) [GSK1379738A]	35022	33049	42431	0.75	2.26	-0.32	0.30	No	23.4%	24.0%	25.7%	1.73	1.76	1.65	1.80	No	No				
COc1ccc(Nc2nccc(N3CCC(NC(=O)Nc4cccc(OC)c4)C3)n2)cc1 (stereo not shown) [GSK1379742A]	25651	33132	39377	0.12	0.84	-0.31	-0.18	No	17.9%	19.2%	19.1%	0.00235	0.0133	0.20	-0.21	No	No	No	1.53	1.56	z-scoreHeLa rep 2 ([1]; PKIS compound screen): 0.68; z-scoreHeLa rep 3 ([1]; PKIS compound screen): 2.36; cell count rep 1 [1, 11]: 8641; cell count rep 2 [1, 11]: 7027; cell count rep 3 [1, 11]: 9326; effect [2, 10]: No; z-scoreMRSA+ mean ([2]; PKIS compound screen): 0.33; z-scoreMRSA+ rep 1 ([2]; PKIS compound screen): -0.05; z-scoreMRSA+ rep 2 ([2]; PKIS compound screen): 0.88; z-scoreMRSA+ rep 3 ([2]; PKIS compound screen): 0.15; %GFP+ rep 1 [2, 12]: 26.8%; %GFP+ rep 2 [2, 12]: 30.6%; %GFP+ rep 3 [2, 12]: 28.1%
COC(=O)c1cccc(NC(=O)NC2CCN(c3ccnc(Nc4ccc(OC)cc4)n3)C2)c1 (stereo not shown) [GSK1379746A]	24857	18367	14326	-0.99	-0.90	-1.18	-0.90	No	19.0%	17.4%	21.2%	-0.17	0.06	-0.55	-0.01	No	No	No	-0.86	-1.12	z-scoreHeLa rep 2 ([1]; PKIS compound screen): -1.01; z-scoreHeLa rep 3 ([1]; PKIS compound screen): -0.44; cell count rep 1 [1, 11]: 4181; cell count rep 2 [1, 11]: 4486; cell count rep 3 [1, 11]: 4898; effect [2, 10]: No; z-scoreMRSA+ mean ([2]; PKIS compound screen): -0.13; z-scoreMRSA+ rep 1 ([2]; PKIS compound screen): -0.05; z-scoreMRSA+ rep 2 ([2]; PKIS compound screen): -0.0265; z-scoreMRSA+ rep 3 ([2]; PKIS compound screen): -0.31; %GFP+ rep 1 [2, 12]: 26.8%; %GFP+ rep 2 [2, 12]: 25.9%; %GFP+ rep 3 [2, 12]: 25.6%
COc1ccc(CNC(=O)NC2CCN(c3ccnc(Nc4cc(OC)c(OC)c(OC)c4)n3)C2)cc1 (stereo not shown) [GSK1379748A]	5560	4556	5664						25.5%	23.4%	23.0%										cell death ([1]; Yes/No call from z-scoreHeLa): No; z-scoreHeLa mean [1, 13]: 0.45; z-scoreHeLa rep 1 [1, 13]: 0.87; z-scoreHeLa rep 2 [1, 13]: 0.20; z-scoreHeLa rep 3 [1, 13]: 0.27; effect ([2]; Yes/No call from z-scoreMRSA+): No; hit ([2]; Yes/No: effect without cell death): No; z-scoreMRSA+ mean [2, 14]: 0.16; z-scoreMRSA+ rep 1 [2, 14]: 0.05; z-scoreMRSA+ rep 2 [2, 14]: 0.19; z-scoreMRSA+ rep 3 [2, 14]: 0.24
COc1cc(Nc2nccc(N3CCC(NC(=O)Nc4cccc(C(C)=O)c4)C3)n2)cc(OC)c1OC (stereo not shown) [GSK1379753A]	28035	28667	17453	-0.0237	-0.37	0.58	-0.29	No	19.3%	19.5%	18.4%	-0.20	0.14	0.025	-0.77	No	No				
COc1cc(Nc2nccc(N3CCC(NC(=O)C(C)c4ccc(Cl)cc4)C3)n2)cc(OC)c1OC (stereo not shown) [GSK1379757A]	34106	27085	22729	0.57	0.66	0.31	0.74	No	24.2%	23.0%	24.9%	1.14	1.45	0.98	1.00	No	No	No	0.21	0.06	z-scoreHeLa rep 2 ([1]; PKIS compound screen): 0.29; z-scoreHeLa rep 3 ([1]; PKIS compound screen): 0.29; cell count rep 1 [1, 11]: 6143; cell count rep 2 [1, 11]: 6440; cell count rep 3 [1, 11]: 6051; effect [2, 10]: No; z-scoreMRSA+ mean ([2]; PKIS compound screen): 0.73; z-scoreMRSA+ rep 1 ([2]; PKIS compound screen): 0.77; z-scoreMRSA+ rep 2 ([2]; PKIS compound screen): 0.76; z-scoreMRSA+ rep 3 ([2]; PKIS compound screen): 0.65; %GFP+ rep 1 [2, 12]: 31.0%; %GFP+ rep 2 [2, 12]: 30.0%; %GFP+ rep 3 [2, 12]: 30.8%
COc1cc(Nc2nccc(N3CCC(NC(=O)c4cc5ccccc5s4)C3)n2)cc(OC)c1OC (stereo not shown) [GSK1379760A]	31010	36298	43524	0.80	1.65	0.28	0.48	No	16.3%	17.7%	19.1%	-0.32	-0.49	-0.25	-0.21	No	No				
COc1cccc(NC(=O)NC2CCN(c3ccnc(Nc4cc(OC)c(OC)c(OC)c4)n3)C2)c1 (stereo not shown) [GSK1379763A]	25281	24740	24420	0.05	-0.83	-0.09	1.07	No	13.0%	15.3%	16.3%	-1.34	-1.54	-1.12	-1.35	No	No				
COc1cc(Nc2nccc(N3CCC(NC(=O)Nc4ccc5c(c4)OCO5)C3)n2)cc(OC)c1OC (stereo not shown) [GSK1379766A]	25836	29727	37841	-0.17	0.87	-0.94	-0.43	No	17.4%	18.6%	19.8%	-0.04	-0.15	0.0226	0.00377	No	No	No	0.15	0.05	z-scoreHeLa rep 2 ([1]; PKIS compound screen): -0.13; z-scoreHeLa rep 3 ([1]; PKIS compound screen): 0.53; cell count rep 1 [1, 11]: 6133; cell count rep 2 [1, 11]: 5809; cell count rep 3 [1, 11]: 6429; effect [2, 10]: No; z-scoreMRSA+ mean ([2]; PKIS compound screen): 0.27; z-scoreMRSA+ rep 1 ([2]; PKIS compound screen): 0.18; z-scoreMRSA+ rep 2 ([2]; PKIS compound screen): 0.32; z-scoreMRSA+ rep 3 ([2]; PKIS compound screen): 0.30; %GFP+ rep 1 [2, 12]: 28.0%; %GFP+ rep 2 [2, 12]: 27.7%; %GFP+ rep 3 [2, 12]: 28.9%
